US20180099931A1 (AbbVie S.à.r.l., priority 2016, published 2018)
pEC50: −log10 of the molar value. Read-outs that look alike come from different tables or passages of the source.

Target: T1, F508delCFTR (Homo sapiens, UniProt P13569, DEL508-508)
T1 construct: expressed in transfected cells; host or cells: CFBE41o- human lung-derived epithelial cells (CFBE4lo-F508delCFTR-HRP), doxycycline-inducible
Assay: Cell Surface Expression-Horse Radish Peroxidase (CSE-HRP) Assay;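 for Maximum % activity (with co-corrector): co-corrector and positive control are both the same reference corrector at 2 µM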;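 for Maximum % activity (without co-corrector): percent of the 2 µM on-plate positive control corrector response above DMSO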
Format: cell-based
Settings: CSE-HRP; for Maximum % activity (with co-corrector): with co-corrector (2 μM); for Maximum % activity (with co-corrector) / Emax: maximum at any tested concentration, normalized to on-plate positive control; for Emax: without co-corrector, read-out: Maximum % activity (without co-corrector)

[1] = test compound without co-corrector, read-out: EC50 (without co-corrector)
[2] = with co-corrector (2 μM of 3-[(2R,4R)-4-({[1-(2,2-difluoro-1,3-benzodioxol-5-yl)cyclopropyl]carbonyl}amino)-7-methoxy-3,4-dihydro-2H-chromen-2-yl]benzoic acid), read-out: EC50 (with co-corrector)

T1 sequence (P13569 with tags, fused parts or gaps DEL508-508): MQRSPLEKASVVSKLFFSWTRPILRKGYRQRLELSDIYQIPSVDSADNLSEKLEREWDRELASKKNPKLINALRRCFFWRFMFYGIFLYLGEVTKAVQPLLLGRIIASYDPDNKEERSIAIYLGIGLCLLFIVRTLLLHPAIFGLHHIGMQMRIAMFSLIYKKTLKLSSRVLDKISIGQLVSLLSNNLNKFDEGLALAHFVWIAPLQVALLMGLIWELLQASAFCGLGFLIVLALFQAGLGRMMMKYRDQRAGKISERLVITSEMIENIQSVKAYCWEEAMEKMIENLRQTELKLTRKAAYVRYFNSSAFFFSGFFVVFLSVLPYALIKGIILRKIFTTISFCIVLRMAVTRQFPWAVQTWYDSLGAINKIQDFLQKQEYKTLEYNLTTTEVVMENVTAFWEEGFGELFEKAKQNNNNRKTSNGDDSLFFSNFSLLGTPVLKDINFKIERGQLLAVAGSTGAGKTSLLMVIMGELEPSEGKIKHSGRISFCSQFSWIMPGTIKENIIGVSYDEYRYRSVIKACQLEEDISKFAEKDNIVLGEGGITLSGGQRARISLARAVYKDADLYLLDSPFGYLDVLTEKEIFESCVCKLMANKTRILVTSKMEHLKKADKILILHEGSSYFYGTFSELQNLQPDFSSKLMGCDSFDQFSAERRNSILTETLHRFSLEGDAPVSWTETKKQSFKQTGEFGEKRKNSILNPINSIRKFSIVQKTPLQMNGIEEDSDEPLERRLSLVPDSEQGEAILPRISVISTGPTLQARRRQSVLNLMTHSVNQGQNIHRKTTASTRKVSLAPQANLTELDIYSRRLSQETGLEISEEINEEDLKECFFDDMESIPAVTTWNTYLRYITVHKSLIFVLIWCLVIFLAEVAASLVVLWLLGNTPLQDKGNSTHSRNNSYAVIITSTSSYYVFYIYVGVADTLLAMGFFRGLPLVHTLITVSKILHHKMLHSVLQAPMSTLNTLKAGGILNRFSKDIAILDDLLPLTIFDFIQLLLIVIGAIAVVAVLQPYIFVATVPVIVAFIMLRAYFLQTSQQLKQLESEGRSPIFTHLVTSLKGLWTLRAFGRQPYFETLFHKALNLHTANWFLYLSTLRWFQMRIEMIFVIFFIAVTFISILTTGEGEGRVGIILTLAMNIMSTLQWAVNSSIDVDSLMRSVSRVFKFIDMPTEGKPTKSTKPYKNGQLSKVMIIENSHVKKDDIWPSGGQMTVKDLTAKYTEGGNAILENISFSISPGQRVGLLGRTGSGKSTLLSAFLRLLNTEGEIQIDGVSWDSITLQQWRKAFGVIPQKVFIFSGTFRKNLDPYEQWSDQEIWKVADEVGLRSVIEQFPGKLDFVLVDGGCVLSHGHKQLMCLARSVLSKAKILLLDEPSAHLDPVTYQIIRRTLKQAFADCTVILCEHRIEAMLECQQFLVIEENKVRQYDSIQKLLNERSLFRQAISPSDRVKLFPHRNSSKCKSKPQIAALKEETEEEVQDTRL

For `COc1ncc(C(F)(F)F)cc1CN[C@H]1[C@H](C(C)(C)C)[C@@H](C(=O)O)N(C(=O)C2CCCCC2)[C@H]1c1ccccc1C` [Example I-258], the pEC50 [1] was > 6.00, the pEC50 [2] was > 6.00 and the “Maximum % activity (with co-corrector)” value was “+++ (≥350)”. It also gave an Emax of 100 to 200%.
In the case of `COc1ccc(C(C)(C)C)cc1CN[C@H]1[C@H](C(C)(C)C)[C@@H](C(=O)O)N(C(=O)[C@@H]2CCCO2)[C@H]1c1ccccc1C` [Example I-261], the pEC50 [1] was 5.00 to 6.00, the pEC50 [2] was 5.00 to 6.00 and the “Maximum % activity (with co-corrector)” value was “+++ (≥350)”. For the same compound, the Emax was > 200%.
In the case of `COc1ncc(C(F)(F)F)cc1CN[C@H]1[C@H](C(C)(C)C)[C@@H](C(=O)O)N(C(=O)[C@@H]2CCCO2)[C@H]1c1ccccc1C` [Example I-262], the pEC50 [1] was 5.00 to 6.00, the pEC50 [2] was 5.00 to 6.00 and the “Maximum % activity (with co-corrector)” value was “+++ (≥350)”. For the same compound, the Emax was > 200%.
With `CC(C)OC(=O)N1[C@H](C(=O)O)[C@@H](C(C)(C)C)[C@H](NCCc2ccccc2)[C@@H]1c1ccccc1` [Example I-263] the pEC50 [1] was 5.00 to 6.00, the pEC50 [2] was 5.00 to 6.00 and the “Maximum % activity (with co-corrector)” value was “++ (≥150 and <350)”. The Emax was < 100%.
`CC(C)OC(=O)N1[C@H](C(=O)O)[C@@H](C(C)(C)C)[C@H](NCC(C)(C)c2ccccc2)[C@@H]1c1ccccc1` [Example I-264] was tested, and the pEC50 [1] was 5.00 to 6.00, the pEC50 [2] was 5.00 to 6.00 and the “Maximum % activity (with co-corrector)” value was “++ (≥150 and <350)”. For the same compound, the Emax was < 100%.
In the case of `COc1ncc(C2CCC2)cc1CN[C@H]1[C@H](C(C)(C)C)[C@@H](C(=O)O)N(C(=O)[C@@H]2CCCO2)[C@H]1c1ccccc1C` [Example I-265], the pEC50 [1] was 5.00 to 6.00, the pEC50 [2] was 5.00 to 6.00 and the “Maximum % activity (with co-corrector)” value was “+++ (≥350)”. The Emax was > 200%.
With `COc1ncc(C2CCC2)cc1CN[C@H]1[C@H](C(C)(C)C)[C@@H](C(=O)O)N(C(=O)[C@H]2CCCCO2)[C@H]1c1ccccc1C` [Example I-266] the pEC50 [1] was 5.00 to 6.00, the pEC50 [2] was 5.00 to 6.00 and the “Maximum % activity (with co-corrector)” value was “+++ (≥350)”. The Emax was > 200%.
`COc1ccccc1C1(CN[C@H]2[C@H](C(C)(C)C)[C@@H](C(=O)O)N(C(=O)OC(C)C)[C@H]2c2ccccc2)CCOCC1` [Example I-267] was tested, and the pEC50 [1] was < 5.00, the pEC50 [2] was 5.00 to 6.00 and the “Maximum % activity (with co-corrector)” value was “+ (<150)”. The Emax was < 100%.
With `CC(C)OC(=O)N1[C@H](C(=O)O)[C@@H](C(C)(C)C)[C@H](NCC2CCCN(c3ccc(C(F)(F)F)cc3)C2)[C@@H]1c1ccccc1` (stereo partly shown) [Example I-268] the pEC50 [1] was 5.00 to 6.00, the pEC50 [2] was 5.00 to 6.00 and the “Maximum % activity (with co-corrector)” value was “+++ (≥350)”. The Emax was < 100%.
`COc1ccc(C(F)(F)F)cc1CN[C@H]1[C@H](C(C)(C)C)[C@@H](C(=O)O)N(C(=O)[C@@H]2CCCO2)[C@H]1c1cccnc1C1CC1` [Example I-269] was tested, and the pEC50 [1] was 5.00 to 6.00, the pEC50 [2] was 5.00 to 6.00 and the “Maximum % activity (with co-corrector)” value was “+++ (≥350)”. It also gave an Emax of 100 to 200%.
`COc1ncc(C(F)(F)F)cc1CN[C@H]1[C@H](C(C)(C)C)[C@@H](C(=O)O)N(C(=O)C2CC2)[C@H]1c1ccccc1C(C)C` [Example I-271] was tested, and the pEC50 [1] was 5.00 to 6.00, the pEC50 [2] was 5.00 to 6.00 and the “Maximum % activity (with co-corrector)” value was “+++ (≥350)”. For the same compound, the Emax was > 200%.
With `COc1ncc(C(F)(F)F)cc1CN[C@H]1[C@H](C(C)(C)C)[C@@H](C(=O)O)N(C(=O)C23CC(C2)C3)[C@H]1c1ccccc1C(C)C` [Example I-272] the pEC50 [1] was 5.00 to 6.00, the pEC50 [2] was > 6.00 and the “Maximum % activity (with co-corrector)” value was “+++ (≥350)”. The Emax was 100 to 200%.
For `COc1ncc(C(F)(F)F)cc1CN[C@H]1[C@H](C(C)(C)C)[C@@H](C(=O)O)N(C(=O)C2CCC2)[C@H]1c1ccccc1C(C)C` [Example I-273], the pEC50 [1] was 5.00 to 6.00, the pEC50 [2] was > 6.00 and the “Maximum % activity (with co-corrector)” value was “+++ (≥350)”. The Emax was > 200%.
With `CCOc1ccc(Br)cc1CN[C@H]1[C@H](C(C)(C)C)[C@@H](C(=O)O)N(C(=O)OC(C)C)[C@H]1c1cccnc1N1CCC1` [Example I-274] the pEC50 [1] was 5.00 to 6.00, the pEC50 [2] was 5.00 to 6.00 and the “Maximum % activity (with co-corrector)” value was “+++ (≥350)”. For the same compound, the Emax was 100 to 200%.
With `COc1cc(C(F)(F)F)ccc1CN[C@H]1[C@H](C(C)(C)C)[C@@H](C(=O)O)N(C(=O)OC(C)C)[C@H]1c1cccnc1N1CCC1` [Example I-275] the pEC50 [1] was 5.00 to 6.00, the pEC50 [2] was 5.00 to 6.00 and the “Maximum % activity (with co-corrector)” value was “+++ (≥350)”. The Emax was > 200%.
For `COc1ncccc1NC1CC(N[C@H]2[C@H](C(C)(C)C)[C@@H](C(=O)O)N(C(=O)OC(C)C)[C@H]2c2ccccc2C2CC2)C1` (stereo partly shown) [Example I-276], the pEC50 [1] was 5.00 to 6.00, the pEC50 [2] was 5.00 to 6.00 and the “Maximum % activity (with co-corrector)” value was “+++ (≥350)”. It also gave an Emax of 100 to 200%.
